{"source": "patent US20260158014A1", "about": "“METHODS OF ADMINISTERING VOXELOTOR” (Global Blood Therapeutics, Inc., priority 2021, published 2026)", "key": {"[1]": {"target": "P-gp (Homo sapiens, UniProt P08183)", "sequence (P08183 whole entry)": "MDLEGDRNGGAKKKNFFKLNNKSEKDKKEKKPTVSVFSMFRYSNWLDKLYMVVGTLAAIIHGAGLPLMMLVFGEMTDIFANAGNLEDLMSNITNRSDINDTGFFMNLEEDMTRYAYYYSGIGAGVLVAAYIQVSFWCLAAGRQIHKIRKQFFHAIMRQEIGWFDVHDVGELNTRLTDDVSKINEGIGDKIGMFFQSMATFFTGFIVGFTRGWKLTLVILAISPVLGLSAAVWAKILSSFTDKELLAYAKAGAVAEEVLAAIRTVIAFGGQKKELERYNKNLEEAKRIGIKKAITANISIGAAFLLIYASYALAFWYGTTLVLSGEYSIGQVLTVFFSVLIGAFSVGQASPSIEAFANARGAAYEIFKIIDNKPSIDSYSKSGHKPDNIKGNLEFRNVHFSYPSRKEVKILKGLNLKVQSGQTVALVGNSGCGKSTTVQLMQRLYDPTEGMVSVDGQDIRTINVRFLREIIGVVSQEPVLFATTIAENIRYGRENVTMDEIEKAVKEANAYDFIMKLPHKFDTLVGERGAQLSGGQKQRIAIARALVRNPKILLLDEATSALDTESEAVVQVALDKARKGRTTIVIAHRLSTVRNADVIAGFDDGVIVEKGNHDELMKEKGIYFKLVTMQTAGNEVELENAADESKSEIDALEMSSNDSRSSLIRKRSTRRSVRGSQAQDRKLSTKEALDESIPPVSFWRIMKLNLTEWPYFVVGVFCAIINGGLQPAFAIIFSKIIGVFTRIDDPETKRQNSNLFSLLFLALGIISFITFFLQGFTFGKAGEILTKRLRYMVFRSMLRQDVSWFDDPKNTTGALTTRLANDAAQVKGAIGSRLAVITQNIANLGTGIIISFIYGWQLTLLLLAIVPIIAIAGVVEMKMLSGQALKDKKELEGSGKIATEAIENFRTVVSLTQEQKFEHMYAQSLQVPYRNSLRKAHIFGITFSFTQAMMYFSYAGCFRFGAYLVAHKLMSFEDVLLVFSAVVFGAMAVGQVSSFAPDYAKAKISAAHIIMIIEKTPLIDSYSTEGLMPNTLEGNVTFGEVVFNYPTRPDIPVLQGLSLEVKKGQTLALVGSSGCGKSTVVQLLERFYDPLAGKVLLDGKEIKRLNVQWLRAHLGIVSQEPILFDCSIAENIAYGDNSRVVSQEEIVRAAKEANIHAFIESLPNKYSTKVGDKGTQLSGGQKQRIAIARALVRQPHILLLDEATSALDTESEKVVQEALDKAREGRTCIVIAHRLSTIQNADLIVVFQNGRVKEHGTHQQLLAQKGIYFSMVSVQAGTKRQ", "assay": "In vitro transporter study", "type": "in vitro ADME"}, "[2]": {"target": "OATP1A2 (Homo sapiens, UniProt P46721)", "sequence (P46721 whole entry, species assumed)": "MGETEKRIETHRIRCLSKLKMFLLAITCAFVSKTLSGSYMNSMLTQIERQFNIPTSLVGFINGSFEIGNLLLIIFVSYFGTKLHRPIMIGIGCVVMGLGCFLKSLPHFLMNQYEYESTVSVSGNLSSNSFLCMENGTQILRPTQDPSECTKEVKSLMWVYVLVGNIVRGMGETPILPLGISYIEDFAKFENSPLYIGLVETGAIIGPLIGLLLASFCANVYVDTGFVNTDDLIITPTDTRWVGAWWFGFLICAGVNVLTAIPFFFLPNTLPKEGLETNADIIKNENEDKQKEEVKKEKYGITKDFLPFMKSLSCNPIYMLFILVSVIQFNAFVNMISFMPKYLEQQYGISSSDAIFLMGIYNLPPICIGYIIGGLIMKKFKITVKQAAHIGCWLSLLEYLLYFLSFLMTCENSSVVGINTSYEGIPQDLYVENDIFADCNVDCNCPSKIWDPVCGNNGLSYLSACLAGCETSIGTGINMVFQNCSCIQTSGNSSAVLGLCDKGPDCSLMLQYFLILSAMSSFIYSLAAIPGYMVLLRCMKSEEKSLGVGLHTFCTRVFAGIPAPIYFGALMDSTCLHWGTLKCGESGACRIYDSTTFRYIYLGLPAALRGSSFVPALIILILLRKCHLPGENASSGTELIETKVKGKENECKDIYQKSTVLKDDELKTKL", "assay": "In vitro transporter study", "type": "in vitro ADME"}, "[3]": {"target": "MATE1 (Homo sapiens, UniProt Q96FL8)", "sequence (Q96FL8 whole entry, species assumed)": "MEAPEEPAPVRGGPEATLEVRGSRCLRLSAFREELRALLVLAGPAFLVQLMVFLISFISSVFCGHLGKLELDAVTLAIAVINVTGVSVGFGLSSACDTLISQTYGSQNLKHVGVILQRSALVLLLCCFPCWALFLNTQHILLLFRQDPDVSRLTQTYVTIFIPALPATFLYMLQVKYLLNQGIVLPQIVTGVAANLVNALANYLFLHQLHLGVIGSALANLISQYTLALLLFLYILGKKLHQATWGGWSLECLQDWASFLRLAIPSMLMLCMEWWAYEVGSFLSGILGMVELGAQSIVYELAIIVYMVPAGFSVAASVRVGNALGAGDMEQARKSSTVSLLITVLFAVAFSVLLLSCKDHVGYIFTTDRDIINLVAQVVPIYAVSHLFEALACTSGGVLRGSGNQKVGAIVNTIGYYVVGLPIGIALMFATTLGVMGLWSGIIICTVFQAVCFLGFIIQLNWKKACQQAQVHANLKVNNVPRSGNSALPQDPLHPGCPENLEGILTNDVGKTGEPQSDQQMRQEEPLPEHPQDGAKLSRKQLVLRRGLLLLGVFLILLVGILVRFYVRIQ", "assay": "In vitro transporter study", "type": "in vitro ADME"}, "[4]": {"test_system": "QT interval", "assay": "Cardiac electrophysiology (QT interval)", "type": "in vivo", "conditions": "plasma concentrations approximately 2-fold above therapeutic concentrations"}, "[5]": {"test_system": "Hb", "assay": "Pharmacodynamics: Hb oxygen affinity (p50) and clinical measures of hemolysis", "type": "in vivo"}, "[6]": {"assay": "PK in subjects with hepatic impairment", "type": "in vivo, human"}, "[7]": {"assay": "Physicochemical description (solubility, hygroscopicity)", "conditions": "crystalline Form II free base"}, "[8]": {"target": "CYP3A4 (Homo sapiens, UniProt P08684)", "sequence (P08684 whole entry)": "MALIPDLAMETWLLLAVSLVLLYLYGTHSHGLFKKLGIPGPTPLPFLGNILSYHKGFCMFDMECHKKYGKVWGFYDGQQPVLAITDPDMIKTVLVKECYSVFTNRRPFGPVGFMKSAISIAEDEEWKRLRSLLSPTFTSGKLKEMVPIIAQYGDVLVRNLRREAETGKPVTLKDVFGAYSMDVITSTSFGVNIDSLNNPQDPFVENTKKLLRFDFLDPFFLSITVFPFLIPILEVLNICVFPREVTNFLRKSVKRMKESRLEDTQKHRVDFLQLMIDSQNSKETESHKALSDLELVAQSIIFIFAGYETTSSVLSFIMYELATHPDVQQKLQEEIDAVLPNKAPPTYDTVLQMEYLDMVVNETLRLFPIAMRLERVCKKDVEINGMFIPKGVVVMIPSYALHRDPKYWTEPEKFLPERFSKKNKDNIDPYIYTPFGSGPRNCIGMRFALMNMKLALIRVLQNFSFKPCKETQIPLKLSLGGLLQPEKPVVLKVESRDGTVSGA", "assay": "Clinical DDI: strong CYP3A4 inhibitor itraconazole on voxelotor", "type": "in vivo", "parameters": "host or cells: Simcyp PBPK simulation", "conditions": "healthy subjects"}, "[9]": {"target": "CYP1A2 (Homo sapiens, UniProt P05177)", "sequence (P05177 whole entry)": "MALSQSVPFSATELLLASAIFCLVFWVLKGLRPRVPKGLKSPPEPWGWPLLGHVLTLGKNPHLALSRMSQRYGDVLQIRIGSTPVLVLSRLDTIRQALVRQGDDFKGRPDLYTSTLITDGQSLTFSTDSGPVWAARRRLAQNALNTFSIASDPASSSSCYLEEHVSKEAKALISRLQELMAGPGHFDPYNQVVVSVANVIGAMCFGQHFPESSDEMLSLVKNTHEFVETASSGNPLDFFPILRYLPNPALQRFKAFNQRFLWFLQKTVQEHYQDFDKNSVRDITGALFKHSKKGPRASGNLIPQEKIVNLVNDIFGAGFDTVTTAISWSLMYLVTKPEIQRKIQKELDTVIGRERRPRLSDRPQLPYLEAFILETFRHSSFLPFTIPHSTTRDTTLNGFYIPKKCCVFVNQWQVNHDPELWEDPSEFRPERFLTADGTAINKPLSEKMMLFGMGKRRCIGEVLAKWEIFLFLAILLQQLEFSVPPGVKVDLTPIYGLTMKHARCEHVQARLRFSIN", "assay": "Clinical probe-substrate DDI study: caffeine", "type": "in vivo", "procedure": "(§1) The effect of voxelotor on the pharmacokinetics (PK) of a single dose of caffeine, warfarin sodium, omeprazole, and midazolam hydrochloride, which are probe substrates for cytochrome P450 (CYP)1A2, CYP2C9, CYP2C19, and CYP3A4, respectively, were studied in healthy subjects. During Period 1, subjects received a single dose of caffeine 100 mg, warfarin sodium 10 mg+vitamin K 10 mg, omeprazole 20 mg, and midazolam hydrochloride 2 mg on Day 1. During Period 2, subjects received voxelotor 900 mg QD on Days 1 and 2 followed by 600 mg QD on Day 3, a single dose of caffeine 100 mg, warfarin sodium 10 mg+vitamin K 10 mg, omeprazole 20 mg, and midazolam hydrochloride 2 mg on Day 4, and voxelotor 600 mg QD on Days 4 through 7.\n(§2) Whole blood and plasma concentrations of voxelotor and plasma concentrations of caffeine, paraxanthine, S-warfarin, omeprazole, 5-hydroxyomeprazole, midazolam, and 1-hydroxymidazolam were determined using validated assays."}, "[10]": {"test_system": "patients treated", "assay": "Hypersensitivity reactions in treated patients", "conditions": "human, in vivo"}, "[11]": {"test_system": "patients with SCD aged 4 to 11 years", "assay": "Open-label Phase 2 trial (part C): safety assessment (TEAEs)"}, "[12]": {"assay": "Population PK modeling of voxelotor in patients aged 4 to 11 years (part C)", "type": "in vivo, human", "conditions": "4-11 years, n=38; for % of patients with ≥20% Hb occupancy / % Hb occupancy: weight-based dosing; for % Hb occupancy: geometric mean (% CV) in Table 3", "procedure": "Population PK modeling was used to determine the whole-blood and plasma PK parameters of voxelotor in the study population. The PK parameters included maximum whole blood or plasma concentration (Cmax), area under the concentration-time curve (AUC), terminal elimination half-life (t1/2), and percent Hb occupancy.\nStatistical analyses: All efficacy and safety assessments were summarized with descriptive statistics. Population PK analyses using nonlinear mixed-effects modeling were performed to characterize voxelotor PK in plasma and whole blood."}, "[13]": {"target": "T1, CYP2C19 (Homo sapiens, UniProt P33261)", "T1 construct": "endogenous in cells; host or cells: healthy human subjects (in vivo)", "T1 sequence (P33261 whole entry)": "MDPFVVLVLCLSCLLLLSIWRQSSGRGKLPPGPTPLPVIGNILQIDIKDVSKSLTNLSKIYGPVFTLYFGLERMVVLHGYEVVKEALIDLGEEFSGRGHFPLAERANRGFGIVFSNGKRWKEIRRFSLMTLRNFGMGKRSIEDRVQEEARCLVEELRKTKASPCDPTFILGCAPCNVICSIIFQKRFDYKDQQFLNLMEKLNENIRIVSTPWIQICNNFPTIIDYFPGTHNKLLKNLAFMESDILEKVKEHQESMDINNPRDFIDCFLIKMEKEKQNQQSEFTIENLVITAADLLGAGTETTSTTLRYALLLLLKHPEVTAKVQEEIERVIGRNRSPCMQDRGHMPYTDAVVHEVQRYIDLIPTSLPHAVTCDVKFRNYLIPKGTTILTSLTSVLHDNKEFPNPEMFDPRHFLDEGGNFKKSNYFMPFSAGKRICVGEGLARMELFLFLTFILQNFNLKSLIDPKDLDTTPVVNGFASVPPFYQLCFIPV", "assay": "Clinical probe-substrate DDI study: omeprazole", "type": "in vivo", "procedure": "as §1, §2"}, "[14]": {"conditions": "4 to 11 years, n=45, listed as OXBRYTA"}}, "data": [{"smiles": "CC(C)n1nccc1-c1ncccc1COc1cccc(O)c1C=O", "note": "[voxelotor, 2-hydroxy-6-((2-(1-isopropyl-1H-pyrazol-5-yl)pyridin-3-yl)methoxy)benzaldehyde]", "values": [{"measurement": "P-gp inhibition", "setting": "[1]", "value": "not an inhibitor"}, {"measurement": "substrate of P-gp", "setting": "[1]", "value": "not a substrate"}, {"measurement": "substrate of OATP1A2", "setting": "[2]", "value": "not a substrate"}, {"measurement": "MATE1 inhibition", "setting": "[3]", "value": "not an inhibitor"}, {"measurement": "QT interval prolongation", "setting": "[4]", "value": "does not prolong QT interval to any clinically relevant extent"}, {"measurement": "clinical measures of hemolysis (indirect bilirubin and % reticulocytes)", "setting": "[5]; in vivo", "value": "dose-dependent reduction"}, {"measurement": "Hb oxygen affinity as determined by change in p50", "setting": "[5]; linearly correlated with voxelotor exposure", "value": "dose-dependent increase"}, {"measurement": "whole blood AUC higher vs normal hepatic function, mild hepatic impairment", "setting": "[6]; Child Pugh A", "value": 14, "unit": "%"}, {"measurement": "whole blood AUC higher vs normal hepatic function, moderate hepatic impairment", "setting": "[6]; Child Pugh B", "value": 15, "unit": "%"}, {"measurement": "whole blood AUC higher vs normal hepatic function, severe hepatic impairment", "setting": "[6]; Child Pugh C", "value": 90, "unit": "%"}, {"measurement": "hygroscopicity", "setting": "[7]", "value": "non-hygroscopic"}, {"measurement": "solubility in common organic solvents such as acetone and toluene", "setting": "[7]", "value": "highly soluble"}, {"measurement": "solubility in water", "setting": "[7]", "value": "insoluble in water"}, {"measurement": "increase of voxelotor AUC with itraconazole", "setting": "[8]", "value": 11, "unit": "%"}, {"measurement": "effect of voxelotor on PK of CYP1A2 probe substrate caffeine", "setting": "[9]; healthy subjects, voxelotor 900/600 mg QD, caffeine 100 mg", "value": "no clinically meaningful effect"}, {"measurement": "CYP1A2 inhibition in vivo", "setting": "[9]; human, in vivo", "value": "not"}, {"measurement": "serious hypersensitivity reactions, patients treated", "setting": "[10]", "value": "< 1", "unit": "%"}, {"measurement": "Any drug-related TEAE", "setting": "[11]; 4-11 years, n=45, week 24", "value": "22 (48.9) n (%)"}, {"measurement": "Drug-related AE: Abdominal pain", "setting": "[11]; 4-11 years, n=45, week 24", "value": "4 (8.9) n (%)"}, {"measurement": "Drug-related AE: Diarrhea", "setting": "[11]; 4-11 years, n=45, week 24", "value": "5 (11.1) n (%)"}, {"measurement": "Drug-related AE: Headache", "setting": "[11]; 4-11 years, n=45, week 24", "value": "2 (4.4) n (%)"}, {"measurement": "Drug-related AE: Hypersplenism", "setting": "[11]; 4-11 years, n=45, week 24", "value": "2 (4.4) n (%)"}, {"measurement": "Drug-related AE: Pyrexia", "setting": "[11]; 4-11 years, n=45, week 24", "value": "2 (4.4) n (%)"}, {"measurement": "Drug-related AE: Rash", "setting": "[11]; 4-11 years, n=45, week 24", "value": "5 (11.1) n (%)"}, {"measurement": "Drug-related AE: Transaminases increased", "setting": "[11]; 4-11 years, n=45, week 24", "value": "4 (8.9) n (%)"}, {"measurement": "Drug-related AE: Vomiting", "setting": "[11]; 4-11 years, n=45, week 24", "value": "5 (11.1) n (%)"}, {"measurement": "tolerability of weight-based dosing", "setting": "[11]; 4 to 11 years, median exposure 43.3 weeks", "value": "well tolerated"}, {"measurement": "deaths", "setting": "[11]; 4 to 11 years, n=45", "value": "no deaths"}, {"measurement": "drug-related TEAE diarrhea, patients", "setting": "[11]; 4 to 11 years, n=45", "value": 11, "unit": "%"}, {"measurement": "drug-related TEAE rash, patients", "setting": "[11]; 4 to 11 years, n=45", "value": 11, "unit": "%"}, {"measurement": "drug-related TEAE vomiting, patients", "setting": "[11]; 4 to 11 years, n=45", "value": 11, "unit": "%"}, {"measurement": "pyrexia, patients (non-SCD related TEAE / adverse reaction)", "setting": "[11]; 4 to 11 years, n=45", "value": 35.6, "unit": "%"}, {"measurement": "rash, patients (non-SCD related TEAE / adverse reaction)", "setting": "[11]; 4 to 11 years, n=45", "value": 20, "unit": "%"}, {"measurement": "vomiting, patients (non-SCD related TEAE / adverse reaction)", "setting": "[11]; 4 to 11 years, n=45", "value": 33.3, "unit": "%"}, {"measurement": "pyrexia, patients (non-SCD related TEAE / adverse reaction)", "setting": "[11]; [14]", "value": 36, "unit": "%"}, {"measurement": "vomiting, patients (non-SCD related TEAE / adverse reaction)", "setting": "[11]; [14]", "value": 33, "unit": "%"}, {"measurement": "abdominal pain, patients (adverse reaction)", "setting": "[11]; 4 to <12 years, n=45", "value": 18, "unit": "%"}, {"measurement": "diarrhea, patients (adverse reaction)", "setting": "[11]; 4 to <12 years, n=45", "value": 18, "unit": "%"}, {"measurement": "headache, patients (adverse reaction)", "setting": "[11]; 4 to <12 years, n=45", "value": 18, "unit": "%"}, {"measurement": "patients who discontinued voxelotor due to adverse events", "setting": "[11]; of 45 patients, 2 drug-related, 2 unrelated", "value": 4, "unit": "patients"}, {"measurement": "% of patients with ≥20% Hb occupancy", "setting": "[12]", "value": "Approximately 76%"}, {"measurement": "% of patients with ≥20% Hb occupancy", "setting": "[12]; listed as Voxelotor", "value": 76.3, "unit": "%"}, {"measurement": "% Hb occupancy", "setting": "[12]", "value": 26, "unit": "%"}, {"measurement": "% Hb occupancy", "setting": "[12]; listed as Voxelotor", "value": "26.16 (32.2) %"}, {"measurement": "Cmax", "setting": "[12]; human, whole blood, oral, geometric mean (% CV), 600/900/1500 mg weight-based", "value": 148, "unit": "µg/mL"}, {"measurement": "AUC(0-t)", "setting": "[12]; human, whole blood, oral, geometric mean (% CV), 600/900/1500 mg weight-based, read-out: AUC0-24 h, whole blood", "value": 3260, "unit": "µg·h/mL"}, {"measurement": "half-life", "setting": "[12]; human, whole blood, oral, geometric mean (% CV), read-out: t1/2, whole blood (converted)", "value": 27.2, "unit": "h"}, {"measurement": "effect of voxelotor on PK of CYP2C19 probe substrate omeprazole", "setting": "[13]; healthy subjects, voxelotor 900/600 mg QD, omeprazole 20 mg", "value": "no clinically meaningful effect"}, {"measurement": "CYP2C19 inhibition in vivo", "setting": "[13]; human, in vivo", "value": "not"}]}]}
